Source: patent US11421010B2, “T cells expressing membrane-anchored IL-12 for the treatment of cancer” (Board of Regents, The University of Texas System, priority 2016, dated 2022)

How the values were obtained:
[1] = system: STAT3; experiment: Immunoblot of pSTAT3 with pharmacologic inhibitors, human CD8^+ T cells; assay type: cell-based; conditions: PP2 (1 nM); 1 h
Method: (§1) FIG. 23: Elevated STAT3 phosphorylation resulting from CD80 binding-mediated CD28 activation via the tyrosine kinase Lck/JAK/STAT3 signaling pathway. The effect of CD28 activation and treatment with pharmacologic inhibitors on the expression of pSTAT, total STAT, and b-actin according to immunoblot assay. Mouse and human CD8^+ T cells were stimulated with anti-CD3 microbeads and treated with ctrl Fc or CD80-Fc in the presence or absence of the pharmacologic inhibitor JSI-124 […], PP2 (1 nM), or AG-490 ([…]) for 24 h. Vehicle control is included. The intensity quantification shown ([…]/intensity of β-actin) represents the mean intensity from three repeated experiments.
(§2) Because NKG2D expression on NK cells is regulated by pSTAT3, the next question was whether pSTAT3 expression is induced in CD8^+ T cells by activation of CD28. To address this question, the pSTAT3 expression was measured in both mouse and human CD8^+ T cells after incubation with control IgG or CD80-Fc for 15 and 30 min, as well as 1 and 2 h via intracellular flow cytometric staining. […] Given that CD28 activation in CD8^+ T cells results in STAT3 phosphorylation, it was sought to determine how CD28 activates JAK/STAT3 signaling in CD8^+ T cells. In these cells, the co-stimulatory receptor CD28 strengthens TCR signaling via sustained activation of the tyrosine kinase Lck which in turn recruits and activates ZAP70. […] Thus a pharmacologic model was established to determine whether Lck/ZAP70, as an upstream kinase cascade, activates STAT3 in CD8^+ T cells. Mouse and human CD8^+ T cells were enriched (FIG. 29) and stimulated with anti-CD3 microbeads and incubated with control IgG or CD80-Fc in the presence or absence of the pharmacologic inhibitor PP2, AG-490, or JSI-124 for 1 h. PP2 was employed because it is a specific Src-family kinase inhibitor sensitive to blockade of Lck activation. Also, AG-490 can inhibit activation of JAK/STAT3 signaling. […] To validate the crucial role of pSTAT3, the expression of pSTAT1 and pSTAT5 was also assessed. […]

[2] = system: Lck/JAK/STAT3 signaling; experiment: NKG2D expression with CD80-Fc plus inhibitors of STAT3 activation, human CD8^+ T cells; assay type: cell-based; conditions: 24 h
Method: (§3) FIGS. 24A-24B: Blockade of Lck/JAK/STAT3 signaling abolishes CD28 activation-mediated induction of NKG2D expression on mouse and human CD8^+ T cells. (A, B) Mouse (A) and human (B) CD8^+ T cells were stimulated with anti-CD3 microbeads and treated with control Fc or CD80-FC in the presence or absence of the pharmacologic inhibitor JSI-124, PP2, or AG-490 for 24 h. The CD80+ vehicle has the highest expression of NKG2D. NKG2D expression on the surface of CD8^+ T cells was measured using flow cytometry. The bar graphs show the median (±SEM) MFI of NKG2D (n=3). The data are representative of three repeated experiments.
(§4) If NKG2D expression is induced by CD80-Fc-based treatment via pSTAT3, inhibition of any upstream activators of STAT3 should abrogate NKG2D induction. A time course study was performed to assess the toxicity of the pharmacologic inhibitors to mouse and human CD8^+ T cells. […] Therefore, to test the hypothesis, mouse and human CD8^+ T cells were enriched and treated with control Fc, CD80-Fc plus control vehicle, or CD80-Fc plus inhibitors of STAT3 activation, including PP2, AG490, and JSI-124, for 24 h.

[3] = system: STAT3; experiment: Immunoblot of pSTAT3 with pharmacologic inhibitors, mouse CD8^+ T cells; assay type: cell-based; conditions: PP2 (1 nM); 1 h
Method: as §1, §2

[4] = system: Lck/JAK/STAT3 signaling; experiment: NKG2D expression with CD80-Fc plus inhibitors of STAT3 activation, mouse CD8^+ T cells; assay type: cell-based; conditions: 24 h
Method: as §3, §4

[5] = system: LLC cells; experiment: Cytotoxic T-lymphocyte assay against CFSE-labeled LLC cells; assay type: cell-based, mouse; conditions: E:T 5:1, 10:1, 25:1, 5 h
Method: FIGS. 25A-25D: Augmentation of CD8^+ T-cell antitumor cytolytic activity by treatment with CD80-Fc. (A-C) Induction of antitumor cytolytic activity by mouse CD8^+ T cells after exposure to Rae-1^+ LLC cells. Splenocytes were collected from LLC-bearing mice on day 14 after tumor-cell inoculation. CD8^+ T cells were isolated from splenocytes and treated with control Fc or CD80-Fc in the presence or absence of an anti-NKG2D antibody or JSI-124 for 24 h. (A) CD8^+ T cells were co-incubated with CFSE-labeled LLC cells at a ratio of 25:1 (E:T) for 5 h. The cell culture medium was subjected to ELISA analysis of perforin. The bar graphs show the median (±SEM) normalized concentration of perforin (n=3). (B) Flow cytometry analysis of NKG2D ligand Rae-1 expression on LLC tumor cells. (C) CD8^+ T cells were co-incubated with CFSE-labeled LLC cells at ratios of 5:1, 10:1, and 25:1 (E:T) for 5 h. […] Survival of the target cells was measured as the percentage of normalized target cells that remained after incubation with CD8^+ T cells. […]
Because increased perforin expression by immune cells often indicates enhanced antitumor cytolytic activity, the cytotoxic T-lymphocyte activity of mouse CD8^+ T cells was measured after CD80-Fc-based treatment. […] The survival of target cells was determined as the percentage of normalized target cells that remained after incubation with CD8^+ T cells. […]

[6] = system: K562 cells; experiment: Degranulation assay (CD107a), human CD8^+ T cells exposed to K562 cells; assay type: cell-based; conditions: after exposure to target cells, ratio 1:1, 4 h
Method: (§5) FIGS. 25A-25D: Augmentation of CD8^+ T-cell antitumor cytolytic activity by treatment with CD80-Fc. (A-C) Induction of antitumor cytolytic activity by mouse CD8^+ T cells after exposure to Rae-1^+ LLC cells. Splenocytes were collected from LLC-bearing mice on day 14 after tumor-cell inoculation. CD8^+ T cells were isolated from splenocytes and treated with control Fc or CD80-Fc in the presence or absence of an anti-NKG2D antibody or JSI-124 for 24 h. (A) CD8^+ T cells were co-incubated with CFSE-labeled LLC cells at a ratio of 25:1 (E:T) for 5 h. The cell culture medium was subjected to ELISA analysis of perforin. The bar graphs show the median (±SEM) normalized concentration of perforin (n=3). (B) Flow cytometry analysis of NKG2D ligand Rae-1 expression on LLC tumor cells. (C) CD8^+ T cells were co-incubated with CFSE-labeled LLC cells at ratios of 5:1, 10:1, and 25:1 (E:T) for 5 h. After incubation, the cells were stained with PI (1 mg/mL). […] Survival of the target cells was measured as the percentage of normalized target cells that remained after incubation with CD8^+ T cells. […]
(§6) In a similar manner, the cytolytic activity of human CD8^+ T cells was assessed in terms of their degranulation upon CD28 activation. The ability of CD8^+ T cells to undergo degranulation was evaluated in response to exposure to target tumor cells by the induction of cell surface marker CD107a. […]

[7] = as above; assay type: cell-based; conditions: 24 h treatment
Method: as §5, §6

[8] = system: mouse CD8^+ T cells; experiment: CD8^+ T cell viability after JSI-124 (7-AAD), mouse; assay type: cell-based; conditions: 48 h, JSI-124 0.1 μM, versus vehicle control
Method: (§7) FIGS. 30A-30B: CD8^+ T cell viability after JSI-124 treatment. Freshly enriched mouse (A) and human (B) CD8^+ T cells were treated with vehicle control or JSI-124 (0.1 μM) for 1, 2, 3, and 4 days. Cell viability was assessed after 7-AAD staining via flow cytometry.
as §4

[9] = system: human CD8^+ T cells; experiment: CD8^+ T cell viability after JSI-124 (7-AAD), human; assay type: cell-based; conditions: 48 h, JSI-124 0.1 μM, versus vehicle control
Method: as §7, §4

| Structure (SMILES) | phosphorylation of STAT3 in response to CD80-Fc [1] | NKG2D expression on CD8^+ T cells [2] | phosphorylation of STAT3 in response to CD80-Fc [3] | NKG2D expression on CD8^+ T cells [4] | cytolytic activity against LLC cells [5] | degranulation (CD107a) [6] | NKG2D expression [7] | cell viability [8] | cell viability [9] |
| --- | --- | --- | --- | --- | --- | --- | --- | --- | --- |
| N#C/C(=C/c1ccc(O)c(O)c1)C(=O)NCc1ccccc1 [AG-490] | completed abolished | dramatic decreases | completed abolished | dramatic decreases |  |  |  |  |  |
| CC(C)(O)/C=C/C(=O)[C@](C)(O)[C@H]1[C@H](O)C[C@@]2(C)[C@@H]3CC=C4[C@@H](C=C(O)C(=O)C4(C)C)[C@]3(C)C(=O)C[C@]12C [JSI-124] | completed abolished | dramatic decreases | completed abolished | dramatic decreases | impaired the cytolytic activity | reduced degranulation | abolished NKG2D expression | markedly decreased | markedly decreased |
| CC(C)(C)n1nc(-c2ccc(Cl)cc2)c2c(N)ncnc21 [PP2] | completed abolished | dramatic decreases | completed abolished | dramatic decreases |  |  |  |  |  |
